Test results taken from patent US20070231288A1, “COSMETIC USE OF D-RIBOSE AND METHOD THEREOF” (LM Cosmetics, priority 2006, published 2007).

How the values were obtained:
[1] = test system: normal human epidermal fibroblasts in culture; experiment: Effect of D-ribose on in vitro production of ATP by skin cells under hypoxia; assay type: cell-based; conditions: 0.05% D-ribose, after 6 hours of severe hypoxia (oxygen <2%), 24 h pre-treatment
Experimental: The inventors measured the effect of D-ribose on the production of ATP by the normal human epidermal fibroblasts in culture, under conditions of hypoxia. The cellules used are flask inoculations of normal human epidermal fibroblasts in DMEM medium with 10% FCS, incubation at 37° C., 5% CO2 and RH>95% up to 80% confluency. On Day 1, a first measurement of the level of ATP is taken on the untreated, unstressed NHDF. Pre-treatment for 24 hours with 0.05% of ribose versus an untreated control condition, 2 series in hexaplicate according to conditions. On Day 2, before the induction of hypoxia: stopping a series in order to measure the ATP level before hypoxia over all conditions (treated and untreated). The cells of the 2nd series were placed in suspension, the culture medium was renewed by DMEM 10% FCS supplemented with Hepes buffer (to maintain the pH at physiological conditions during hypoxia) and with EDTA (to prevent cell agglutination). The cells are placed in a incubator adjusted to 37° C., RH>95% the atmosphere of which has previously been replaced with nitrogen. Incubation for 6 hours under conditions of severe hypoxia (oxygen <2%) in the presence of 0.05% D-ribose versus an untreated control condition. Recovery of the cells and measurement of the quantity of ATP in the treated and untreated cells.

[2] = test system: normal human dermal fibroblasts in culture (NHDF); experiment: Effect of D-ribose on in vitro skin cell respiration (BD Oxygen Biosensor System); assay type: cell-based; conditions: 0.05% D-ribose, after 2 hours of contact
Experimental: The inventors measured the effect of D-ribose on the mitochondrial and cytosolic respiration of normal human dermal fibroblasts in culture (NHDF). The cells used are fibroblasts cultured at 37° C., 5% CO2, in DMEM medium, 10% FCS (foetal calf serum). The NHDF cultured in monolayer are placed in suspension and distributed in the wells of a special plate of the “BD Oxygen Biosensor System” kit. The bottom of the well is constituted by a membrane on which a molecule is grafted the fluorescence of which is inhibited by the oxygen dissolved in the incubation medium. The fluorescence increases in proportion to the oxygen consumed by the cells. 0.05% D-ribose is added in six wells. The intensity of fluorescence is measured in kinetic mode. The rate of respiration is calculated from measurements of the intensity of fluorescence.

**Q.** Which ATP level re-established [1] does the source give for O=C[C@H](O)[C@H](O)[C@H](O)CO [D-ribose] here?
**A.** 19%

**Q.** And the “increase in the cytosolic respiration” value [2]?
**A.** 37%

**Q.** And the “increase in the mitochondrial respiration” value [2]?
**A.** 31%
